Reference: PMC6478789, “A chemical toolbox for the study of bromodomains and epigenetic signaling” (Nature Communications, 2019)

What was measured:
Test in all cases: Methyl transferase scintillation proximity assay
Format in all cases: biochemical
Settings in all cases: average of two measurements, read-out: MTases Inhibition (%)
[1] = biological target: T1, SUV420H2 (Homo sapiens, UniProt Q86Y97)
T1 construct: purchased DiscoverX BROMOscan (bromodomains); SGC in-house methyltransferase panel
Procedure: (§1) Assays measuring lysine and arginine methyl transferase activity have been described in Scheer et al.. A radioactivity-based scintillation proximity assay was used to monitor incorporation of a tritium-labeled methyl group into the biotinylated substrate of the methyl transferase. A 10-μl reaction containing ^3H-SAM and substrate at concentrations close to the apparent Km values for each enzyme was prepared. The reactions were quenched with 10 μl of 7.5 M guanidine hydrochloride; 180 μl of 20 mM Tris buffer (pH 8.0) were added; and the mixture was transferred to a 96-well FlashPlate and incubated for 1 h. The counts per minute (CPM) was measured on a TopCount plate reader. The CPM in the absence of compound or enzyme was defined as 100% activity and background (0%), respectively, for each dataset.

[2] = biological target: T2, SETD8 (Homo sapiens, UniProt Q9NQR1)
T2 construct: purchased DiscoverX BROMOscan (bromodomains); SGC in-house methyltransferase panel
T2 sequence (Q9NQR1 1-393): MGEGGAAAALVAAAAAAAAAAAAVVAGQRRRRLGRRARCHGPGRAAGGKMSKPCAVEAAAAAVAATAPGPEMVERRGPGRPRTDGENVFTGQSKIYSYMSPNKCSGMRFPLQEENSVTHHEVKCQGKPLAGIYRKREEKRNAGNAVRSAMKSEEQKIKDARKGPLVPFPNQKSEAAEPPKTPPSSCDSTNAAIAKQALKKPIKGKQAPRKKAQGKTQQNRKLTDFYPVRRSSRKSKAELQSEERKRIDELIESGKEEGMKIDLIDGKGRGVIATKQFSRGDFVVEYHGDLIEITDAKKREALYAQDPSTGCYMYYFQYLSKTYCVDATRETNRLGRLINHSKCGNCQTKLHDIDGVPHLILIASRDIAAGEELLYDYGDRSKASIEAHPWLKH
Procedure: as §1

[3] = biological target: T3, SUV39H2 (Homo sapiens, UniProt Q9H5I1)
T3 construct: purchased DiscoverX BROMOscan (bromodomains); SGC in-house methyltransferase panel
T3 sequence (Q9H5I1 whole entry): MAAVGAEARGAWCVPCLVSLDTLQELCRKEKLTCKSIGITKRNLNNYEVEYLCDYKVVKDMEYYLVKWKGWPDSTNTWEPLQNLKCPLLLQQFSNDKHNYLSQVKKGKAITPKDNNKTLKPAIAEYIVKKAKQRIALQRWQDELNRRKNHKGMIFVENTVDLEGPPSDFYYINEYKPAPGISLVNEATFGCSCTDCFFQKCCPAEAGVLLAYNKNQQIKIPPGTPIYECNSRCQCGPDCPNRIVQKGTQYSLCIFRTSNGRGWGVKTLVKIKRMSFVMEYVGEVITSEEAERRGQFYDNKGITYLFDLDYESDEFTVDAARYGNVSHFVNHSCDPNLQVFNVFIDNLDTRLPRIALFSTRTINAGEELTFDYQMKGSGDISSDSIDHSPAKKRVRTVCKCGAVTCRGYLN
Procedure: as §1

[4] = biological target: T4, DNMT1 (Homo sapiens, UniProt P26358)
T4 construct: purchased DiscoverX BROMOscan (bromodomains); SGC in-house methyltransferase panel
T4 sequence (P26358 whole entry): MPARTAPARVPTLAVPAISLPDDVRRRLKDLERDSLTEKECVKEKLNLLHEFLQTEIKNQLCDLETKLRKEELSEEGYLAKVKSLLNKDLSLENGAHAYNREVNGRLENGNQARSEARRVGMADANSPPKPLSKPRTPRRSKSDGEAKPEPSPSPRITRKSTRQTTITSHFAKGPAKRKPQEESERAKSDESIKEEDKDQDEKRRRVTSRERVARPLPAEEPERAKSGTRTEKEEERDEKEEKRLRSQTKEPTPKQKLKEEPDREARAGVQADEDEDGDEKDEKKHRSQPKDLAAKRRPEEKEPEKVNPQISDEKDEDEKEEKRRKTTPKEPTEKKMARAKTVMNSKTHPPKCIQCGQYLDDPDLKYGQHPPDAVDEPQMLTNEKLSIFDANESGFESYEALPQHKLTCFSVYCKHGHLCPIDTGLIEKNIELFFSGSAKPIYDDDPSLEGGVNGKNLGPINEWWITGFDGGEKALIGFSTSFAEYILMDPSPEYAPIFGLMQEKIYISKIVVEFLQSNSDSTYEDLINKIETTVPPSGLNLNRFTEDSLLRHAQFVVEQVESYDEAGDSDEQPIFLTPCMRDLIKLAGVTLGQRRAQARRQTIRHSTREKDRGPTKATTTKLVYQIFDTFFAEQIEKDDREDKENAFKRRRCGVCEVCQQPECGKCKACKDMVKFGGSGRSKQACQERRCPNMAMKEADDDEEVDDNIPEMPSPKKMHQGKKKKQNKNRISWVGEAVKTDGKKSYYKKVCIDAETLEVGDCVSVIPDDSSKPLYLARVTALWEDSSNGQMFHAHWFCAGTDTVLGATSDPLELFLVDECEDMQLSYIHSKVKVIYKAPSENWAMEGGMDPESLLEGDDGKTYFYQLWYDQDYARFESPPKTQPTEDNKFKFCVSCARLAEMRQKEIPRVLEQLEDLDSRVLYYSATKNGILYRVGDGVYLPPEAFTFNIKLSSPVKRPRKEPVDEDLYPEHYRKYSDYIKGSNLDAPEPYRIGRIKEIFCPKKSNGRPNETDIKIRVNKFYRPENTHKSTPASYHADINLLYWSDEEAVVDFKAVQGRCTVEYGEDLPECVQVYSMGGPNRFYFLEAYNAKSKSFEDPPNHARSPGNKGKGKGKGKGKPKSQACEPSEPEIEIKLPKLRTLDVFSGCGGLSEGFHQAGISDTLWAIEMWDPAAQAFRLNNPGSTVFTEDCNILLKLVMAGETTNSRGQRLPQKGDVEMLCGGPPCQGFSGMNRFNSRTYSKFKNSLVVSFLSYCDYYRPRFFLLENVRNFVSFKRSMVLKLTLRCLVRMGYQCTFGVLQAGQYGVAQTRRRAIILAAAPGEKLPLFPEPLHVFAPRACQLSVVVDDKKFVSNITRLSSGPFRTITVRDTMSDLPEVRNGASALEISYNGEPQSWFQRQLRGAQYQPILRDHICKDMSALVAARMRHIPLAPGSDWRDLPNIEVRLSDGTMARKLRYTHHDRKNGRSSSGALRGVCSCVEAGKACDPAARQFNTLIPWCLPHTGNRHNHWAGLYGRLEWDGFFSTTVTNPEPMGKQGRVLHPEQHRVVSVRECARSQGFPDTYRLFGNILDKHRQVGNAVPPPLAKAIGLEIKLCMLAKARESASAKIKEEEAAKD
Procedure: as §1

[5] = biological target: T5, SUV420H1 (Homo sapiens, UniProt Q4FZB7)
T5 construct: purchased DiscoverX BROMOscan (bromodomains); SGC in-house methyltransferase panel
Procedure: as §1

[6] = biological target: T6, PRMT3 (Homo sapiens, UniProt O60678)
T6 construct: purchased DiscoverX BROMOscan (bromodomains); SGC in-house methyltransferase panel
T6 sequence (O60678 whole entry): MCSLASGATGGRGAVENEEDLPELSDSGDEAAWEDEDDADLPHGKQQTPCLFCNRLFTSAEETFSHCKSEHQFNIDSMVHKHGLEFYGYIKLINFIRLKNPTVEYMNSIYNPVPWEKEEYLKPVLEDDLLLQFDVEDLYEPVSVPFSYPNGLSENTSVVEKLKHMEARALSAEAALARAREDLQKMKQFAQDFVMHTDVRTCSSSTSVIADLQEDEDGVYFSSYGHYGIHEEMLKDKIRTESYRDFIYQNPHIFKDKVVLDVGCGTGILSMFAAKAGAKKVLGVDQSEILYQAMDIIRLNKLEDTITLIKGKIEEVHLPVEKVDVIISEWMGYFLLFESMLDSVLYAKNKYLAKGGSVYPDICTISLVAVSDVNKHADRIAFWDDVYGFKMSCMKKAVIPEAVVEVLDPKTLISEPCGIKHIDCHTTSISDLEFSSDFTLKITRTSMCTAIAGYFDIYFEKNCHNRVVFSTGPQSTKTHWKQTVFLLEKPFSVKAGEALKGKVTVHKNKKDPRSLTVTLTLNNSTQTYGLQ
Procedure: as §1

[7] = biological target: T7, DNMT3B/3L (Homo sapiens, UniProt Q9UBC3)
T7 construct: purchased DiscoverX BROMOscan (bromodomains); SGC in-house methyltransferase panel
Procedure: as §1

[8] = biological target: T8, SETDB1 (Homo sapiens, UniProt Q15047)
T8 construct: purchased DiscoverX BROMOscan (bromodomains); SGC in-house methyltransferase panel
Procedure: as §1

[9] = biological target: T9, DOT1L (Homo sapiens, UniProt Q8TEK3)
T9 construct: purchased DiscoverX BROMOscan (bromodomains); SGC in-house methyltransferase panel
T9 sequence (Q8TEK3 whole entry): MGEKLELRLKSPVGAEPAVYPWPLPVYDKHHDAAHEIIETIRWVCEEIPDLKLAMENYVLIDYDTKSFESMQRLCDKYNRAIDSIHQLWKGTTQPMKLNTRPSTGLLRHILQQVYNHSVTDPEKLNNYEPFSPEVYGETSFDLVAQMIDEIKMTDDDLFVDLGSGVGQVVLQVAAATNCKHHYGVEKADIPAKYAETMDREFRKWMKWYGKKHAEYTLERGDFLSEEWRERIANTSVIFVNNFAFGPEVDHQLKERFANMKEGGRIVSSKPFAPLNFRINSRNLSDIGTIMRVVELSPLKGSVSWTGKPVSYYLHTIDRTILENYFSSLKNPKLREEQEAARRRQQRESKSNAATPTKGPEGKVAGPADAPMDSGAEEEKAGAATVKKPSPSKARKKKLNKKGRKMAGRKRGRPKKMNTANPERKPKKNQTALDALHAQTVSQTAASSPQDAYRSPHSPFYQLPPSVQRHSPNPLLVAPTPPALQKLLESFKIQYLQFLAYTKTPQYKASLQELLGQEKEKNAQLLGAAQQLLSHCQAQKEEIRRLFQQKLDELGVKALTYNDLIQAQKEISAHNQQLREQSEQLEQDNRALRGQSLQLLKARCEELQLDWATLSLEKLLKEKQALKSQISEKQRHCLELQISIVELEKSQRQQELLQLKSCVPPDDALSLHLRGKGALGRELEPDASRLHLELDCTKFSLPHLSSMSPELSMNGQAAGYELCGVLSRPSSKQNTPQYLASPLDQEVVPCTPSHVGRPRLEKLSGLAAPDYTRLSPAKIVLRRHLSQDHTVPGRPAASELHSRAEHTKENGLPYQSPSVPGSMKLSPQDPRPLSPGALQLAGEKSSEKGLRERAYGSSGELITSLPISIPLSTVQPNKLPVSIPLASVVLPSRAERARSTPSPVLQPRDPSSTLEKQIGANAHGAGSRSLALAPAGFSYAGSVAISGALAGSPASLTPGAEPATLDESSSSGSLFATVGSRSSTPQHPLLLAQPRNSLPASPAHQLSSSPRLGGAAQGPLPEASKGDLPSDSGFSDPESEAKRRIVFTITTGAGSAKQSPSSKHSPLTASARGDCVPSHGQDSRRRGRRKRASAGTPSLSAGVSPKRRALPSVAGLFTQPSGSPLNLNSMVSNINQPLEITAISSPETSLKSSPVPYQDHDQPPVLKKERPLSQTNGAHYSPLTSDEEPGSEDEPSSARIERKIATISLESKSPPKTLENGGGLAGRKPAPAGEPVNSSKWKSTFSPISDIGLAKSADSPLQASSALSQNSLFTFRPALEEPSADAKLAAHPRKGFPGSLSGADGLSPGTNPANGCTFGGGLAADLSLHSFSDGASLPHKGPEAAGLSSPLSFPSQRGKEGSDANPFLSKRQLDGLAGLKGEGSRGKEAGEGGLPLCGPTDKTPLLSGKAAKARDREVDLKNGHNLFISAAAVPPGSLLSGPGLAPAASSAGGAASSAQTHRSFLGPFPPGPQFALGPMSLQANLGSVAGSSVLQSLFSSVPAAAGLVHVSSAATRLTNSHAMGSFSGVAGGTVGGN
Procedure: as §1

[10] = biological target: T10, DNMT3A/3L (Homo sapiens, UniProt Q9Y6K1)
T10 construct: purchased DiscoverX BROMOscan (bromodomains); SGC in-house methyltransferase panel
Procedure: as §1

[11] = biological target: T11, MLL3 (pentameric) (Homo sapiens, UniProt Q8NEZ4)
T11 construct: purchased DiscoverX BROMOscan (bromodomains); SGC in-house methyltransferase panel
Procedure: as §1

[12] = biological target: T12, SUV39H1 (Homo sapiens, UniProt O43463)
T12 construct: purchased DiscoverX BROMOscan (bromodomains); SGC in-house methyltransferase panel
T12 sequence (O43463 1-412): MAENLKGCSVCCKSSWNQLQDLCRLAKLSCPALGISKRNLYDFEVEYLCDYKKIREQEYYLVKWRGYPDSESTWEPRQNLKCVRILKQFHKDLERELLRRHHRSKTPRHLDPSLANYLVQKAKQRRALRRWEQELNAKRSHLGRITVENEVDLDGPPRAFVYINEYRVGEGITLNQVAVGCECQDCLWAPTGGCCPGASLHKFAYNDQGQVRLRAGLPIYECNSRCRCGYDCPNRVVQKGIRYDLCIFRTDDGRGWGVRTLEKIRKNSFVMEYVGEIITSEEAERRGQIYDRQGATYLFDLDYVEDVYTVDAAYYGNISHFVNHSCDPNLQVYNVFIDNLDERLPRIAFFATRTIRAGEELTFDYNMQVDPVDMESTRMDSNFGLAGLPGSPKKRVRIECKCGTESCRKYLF
Procedure: as §1

[13] = biological target: T13, ASH1L (Homo sapiens, UniProt Q9NR48)
T13 construct: purchased DiscoverX BROMOscan (bromodomains); SGC in-house methyltransferase panel
Procedure: as §1

[14] = biological target: T14, MLL1 (Trimeric) (Homo sapiens, UniProt Q03164)
T14 construct: purchased DiscoverX BROMOscan (bromodomains); SGC in-house methyltransferase panel
Procedure: as §1

[15] = biological target: T15, PRMT8 (Homo sapiens, UniProt Q9NR22)
T15 construct: purchased DiscoverX BROMOscan (bromodomains); SGC in-house methyltransferase panel
Procedure: as §1

[16] = biological target: T16, PRDM9 (Homo sapiens, UniProt Q9NQV7)
T16 construct: purchased DiscoverX BROMOscan (bromodomains); SGC in-house methyltransferase panel
T16 sequence (Q9NQV7 whole entry): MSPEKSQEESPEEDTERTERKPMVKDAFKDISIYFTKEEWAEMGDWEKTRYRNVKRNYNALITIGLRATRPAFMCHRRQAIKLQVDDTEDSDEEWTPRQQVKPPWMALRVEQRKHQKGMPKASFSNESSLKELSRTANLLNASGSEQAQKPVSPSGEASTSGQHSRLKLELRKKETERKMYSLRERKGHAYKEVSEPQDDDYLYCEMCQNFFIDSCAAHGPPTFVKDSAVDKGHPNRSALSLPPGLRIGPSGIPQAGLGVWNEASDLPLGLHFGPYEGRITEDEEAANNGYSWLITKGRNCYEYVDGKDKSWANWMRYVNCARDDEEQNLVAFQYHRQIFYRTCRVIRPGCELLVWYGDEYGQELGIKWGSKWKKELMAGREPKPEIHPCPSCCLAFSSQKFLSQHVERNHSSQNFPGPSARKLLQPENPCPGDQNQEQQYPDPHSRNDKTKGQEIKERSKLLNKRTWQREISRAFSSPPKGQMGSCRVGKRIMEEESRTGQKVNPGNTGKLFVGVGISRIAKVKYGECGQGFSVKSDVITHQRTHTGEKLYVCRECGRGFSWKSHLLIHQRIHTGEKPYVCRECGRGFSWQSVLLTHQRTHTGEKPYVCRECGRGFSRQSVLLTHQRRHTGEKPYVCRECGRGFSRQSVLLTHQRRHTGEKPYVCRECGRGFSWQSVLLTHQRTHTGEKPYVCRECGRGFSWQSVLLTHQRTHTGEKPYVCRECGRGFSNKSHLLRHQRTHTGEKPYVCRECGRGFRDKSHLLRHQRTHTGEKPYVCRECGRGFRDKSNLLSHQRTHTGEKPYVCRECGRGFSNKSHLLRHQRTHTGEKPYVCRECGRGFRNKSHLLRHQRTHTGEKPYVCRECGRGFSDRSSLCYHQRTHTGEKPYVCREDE
Procedure: as §1

## CN(C)CCCOc1ccc(-c2cc(NCCCn3cccn3)nc(S(C)(=O)=O)n2)cc1 [TP-238]
[1]
  inhibition at 10 µM: 0%
[2]
  inhibition at 10 µM: -6%
[3]
  inhibition at 10 µM: 7%
[4]
  inhibition at 10 µM: 3%
[5]
  inhibition at 10 µM: 3%
[6]
  inhibition at 10 µM: 5%
[7]
  inhibition at 10 µM: 0%
[8]
  inhibition at 10 µM: -1%
[9]
  inhibition at 10 µM: 6%
[10]
  inhibition at 10 µM: 8%
[11]
  inhibition at 10 µM: -3%
[12]
  inhibition at 10 µM: -1%
[13]
  inhibition at 10 µM: -4%
[14]
  inhibition at 10 µM: 17%
[15]
  inhibition at 10 µM: 3%
[16]
  inhibition at 10 µM: -1%
